# Assay results from US7045636B2, “MCH antagonists for the treatment of obesity” (Schering Corporation, priority 2001, dated 2006).
# pKi: −log10 of the molar value.
# Biological target: T1, MCH receptor (Homo sapiens, UniProt Q99705)
# T1 construct: expressed in transfected cells; host or cells: CHO cells
# Experiment: MCH Receptor Binding Assay
# Settings: Table 1; membranes from CHO cells expressing the MCH receptor, [125I]-MCH, SPA; read-out: MCH Ki (nm)
# Description: MCH Receptor Binding Assay:
# Membranes from CHO cells expressing the MCH receptor were prepared by lysing cells with 5 mM HEPES for 15 min at 4C. Cell lysates were centrifuged ([…], 15 min) and the pellet was re-suspended in 5 mM HEPES. For each 96-well plate (Microlite, Dynex Technologies), 1 mg of cell membranes were incubated with 10 mg of wheat germ agglutinin SPA beads (Amersham) for 5 min at 4 C in a volume of 10 ml of binding buffer (25 mM HEPES, 10 mM MGCl2, 10 mM NaCl, 5 mM MnCl2, 0.1% BSA). The membrane/bead mixture was centrifuged (1500×g, 3.5 min), the supernatant was aspirated, and the pellet was re-suspended in 10 ml binding buffer. The centrifugation, aspiration and re-suspension were then repeated. The membrane/bead mixture (100 μl) was then added to 96-well plates containing 50 μl of 500 pM [^125I]-MCH (NEN) and […] of the appropriate concentration of compound (4× the desired final concentration). Nonspecific binding was determined by including 1 μM MCH in the binding reaction. The binding reaction was incubated at room temperature for 2 h. Plates were then analyzed in a TOPCOUNT microplate scintillation counter (Packard). Data was analyzed and Ki values were determined using GraphPad Prim.
# T1 sequence (Q99705 whole entry): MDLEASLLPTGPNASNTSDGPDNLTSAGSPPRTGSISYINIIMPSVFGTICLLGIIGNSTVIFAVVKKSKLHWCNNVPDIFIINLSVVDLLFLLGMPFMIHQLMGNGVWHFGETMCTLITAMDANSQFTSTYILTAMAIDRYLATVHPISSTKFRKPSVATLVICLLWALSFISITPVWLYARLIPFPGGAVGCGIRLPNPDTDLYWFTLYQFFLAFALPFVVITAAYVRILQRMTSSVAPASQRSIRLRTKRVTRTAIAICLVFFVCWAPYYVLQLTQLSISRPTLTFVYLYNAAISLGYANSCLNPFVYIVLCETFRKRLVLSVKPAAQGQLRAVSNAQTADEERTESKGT
row,pKi,Compound
1,8.10,CC(C(=O)Nc1cc(Cl)cc(Cl)c1)N(CCc1ccc(-c2cccc(C#N)c2)cc1)C(=O)CN1CC[C@H](O)C1 (stereo partly drawn) [Example 36]
2,8.05,CC(C(=O)Nc1cc(Cl)cc(Cl)c1)N(CCc1ccc(-c2cccc(C#N)c2)cc1)C(=O)CN1CCCCC1 (stereo not drawn) [Example 37]
3,7.05,CN(C)CC(=O)N(CCc1ccc(-c2cccc(C#N)c2)cc1)CC(=O)Nc1cc(Cl)cc(Cl)c1 [Example 32]

# The remaining lines, values behind:
row,Compound,pKi
1,N#Cc1cccc(-c2ccc(CCN(CC(=O)Nc3cc(F)cc(C(F)(F)F)c3)C(=O)CN3CC[C@@H](O)C3)cc2)c1 [Example 5],8.17
2,N#Cc1cccc(-c2ccc(CCN(CC(=O)Nc3ccc(F)c(Cl)c3)C(=O)CN3CC[C@@H](O)C3)cc2)c1 [Example 3],8.43
3,CC(C(=O)Nc1cc(Cl)cc(Cl)c1)N(Cc1ccc(-c2cccc(C#N)c2)cc1)C(=O)CCN1CC[C@H](O)C1 (stereo partly drawn) [Example 26],7.25
4,N#Cc1cccc(-c2ccc(CCN(CC(=O)Nc3cc(F)cc(C(F)(F)F)c3)C(=O)CN3CCCC3)cc2)c1 [Example 11],7.93
5,N#Cc1cccc(-c2ccc(CN(CC(=O)Nc3cc(Cl)cc(Cl)c3)C(=O)CN3CCCC3)cc2)c1 [Example 21],7.46
6,N#Cc1cccc(-c2ccc(CN(CC(=O)Nc3ccc(F)c(C(F)(F)F)c3)C(=O)CN3CCCC3)cc2)c1 [Example 29],7.14
7,N#Cc1cccc(-c2ccc(CCN(CC(=O)Nc3cc(Cl)cc(Cl)c3)C(=O)CN3CCCC3)cc2)c1 [Example 15],7.72
8,N#Cc1cccc(-c2ccc(CCN(CC(=O)Nc3ccc(F)c(Cl)c3)C(=O)CN3CCCC3)cc2)c1 [Example 4],8.28
9,N#Cc1cccc(-c2ccc(CCN(CC(=O)Nc3ccc(Cl)c(C(F)(F)F)c3)C(=O)CN3CCCC3)cc2)c1 [Example 17],7.60
10,N#Cc1cccc(-c2ccc(CN(CC(=O)Nc3cc(Cl)cc(Cl)c3)C(=O)C3CN(C4CCCC4)C3)cc2)c1 [Example 24],7.40
11,N#Cc1cccc(-c2ccc(CN(CC(=O)Nc3cc(Cl)cc(Cl)c3)C(=O)CN3CC[C@H](O)C3)cc2)c1 [Example 18],7.57
12,N#Cc1cccc(-c2ccc(CN(CC(=O)Nc3cc(Cl)cc(Cl)c3)C(=O)NCCN3CCCC3)cc2)c1 [Example 13],7.89
13,N#Cc1cccc(-c2ccc(CCN(CC(=O)Nc3ccc(F)c(C(F)(F)F)c3)C(=O)CN3CCCC3)cc2)c1 [Example 19],7.55
14,CN1CCN(CC(=O)N(CCc2ccc(-c3cccc(C#N)c3)cc2)CC(=O)Nc2cc(Cl)cc(Cl)c2)CC1 [Example 28],7.20
15,CN(C)CC(=O)N(CC(=O)Nc1cc(Cl)cc(Cl)c1)c1ccc(-c2cccc(C#N)c2)cc1 [Example 25],7.28
16,N#Cc1cccc(-c2ccc(CCN(CC(=O)Nc3cc(Cl)cc(Cl)c3)C(=O)CCN3CCCC3)cc2)c1 [Example 9],8.00
17,N#Cc1cccc(-c2ccc(CCN(CC(=O)Nc3cc(Cl)cc(Cl)c3)C(=O)CN3CCCCC3)cc2)c1 [Example 7],8.03
18,N#Cc1cccc(-c2ccc(CCN(CC(=O)Nc3cc(Cl)cc(Cl)c3)C(=O)CCN3CC[C@H](O)C3)cc2)c1 [Example 6],8.14
19,CC(C(=O)Nc1cc(Cl)cc(Cl)c1)N(Cc1ccc(-c2cccc(C#N)c2)cc1)C(=O)CCN1CCCC1 (stereo not drawn) [Example 30],7.14
20,CCCNCCC(=O)N(CCc1ccc(-c2cccc(C#N)c2)cc1)CC(=O)Nc1cc(Cl)cc(Cl)c1 [Example 16],7.62
21,CN(C)CC(=O)N(CC(=O)Nc1cc(Cl)cc(Cl)c1)Cc1ccc(-c2cccc(C#N)c2)cc1 [Example 22],7.44
22,CC(=O)N[C@@H]1CCN(CC(=O)N(CCc2ccc(-c3cccc(C#N)c3)cc2)CC(=O)Nc2cc(Cl)cc(Cl)c2)C1 [Example 31],7.09
23,N#Cc1cccc(-c2ccc(CCN(CC(=O)Nc3cc(Cl)cc(Cl)c3)C(=O)CCN3CCC3)cc2)c1 [Example 20],7.49
24,N#Cc1cccc(-c2ccc(CCN(CC(=O)Nc3ccc(Cl)c(C(F)(F)F)c3)C(=O)CN3CC[C@@H](O)C3)cc2)c1 [Example 10],7.96
25,N#Cc1cccc(-c2ccc(CCN(CC(=O)Nc3cc(Cl)cc(Cl)c3)C(=O)CCN3CC[C@@H](O)C3)cc2)c1 [Example 12],7.92
26,N#Cc1cccc(-c2ccc(CN(CC(=O)Nc3cc(Cl)cc(Cl)c3)C(=O)CN3CC[C@@H](O)C3)cc2)c1 [Example 27],7.21

# Same assay, conditions: Table 2; membranes from CHO cells expressing the MCH receptor, [125I]-MCH, SPA; read-out: Ki (MCH)
row,pKi,Compound
1,7.66,C[C@@H](c1ccc(-c2cccc(C#N)c2)cc1)N(CC(=O)Nc1cc(Cl)cc(Cl)c1)C(=O)CCNCC1CC1 [Example 46]
2,7.74,C[C@@H](c1ccc(-c2cccc(C#N)c2)cc1)N(CC(=O)Nc1cc(Cl)cc(Cl)c1)C(=O)CCN1CC[C@@H](O)C1 [Example 43]
3,7.92,CC(c1ccc(-c2cccc(C#N)c2)cc1)N(CC(=O)Nc1cc(Cl)cc(Cl)c1)C(=O)CCN1CC[C@@H](O)C1 (stereo partly drawn) [Example 41]
4,7.11,CNCCC(=O)N(CC(=O)Nc1cc(Cl)cc(Cl)c1)[C@@H](C)c1ccc(-c2cccc(C#N)c2)cc1 [Example 53]
5,7.17,C[C@@H](c1ccc(-c2cccc(C#N)c2)cc1)N(CC(=O)Nc1cc(Cl)cc(Cl)c1)C(=O)CCNC1CCCC1 [Example 52]
6,7.64,C[C@H](c1ccc(-c2cccc(C#N)c2)cc1)N(CC(=O)Nc1cc(Cl)cc(Cl)c1)C(=O)CCN1CC[C@@H](O)C1 [Example 47]
7,7.74,C[C@@H](c1ccc(-c2cccc(C#N)c2)cc1)N(CC(=O)Nc1cc(Cl)cc(Cl)c1)C(=O)CCN1CCCCC1 [Example 44]
8,7.80,CC(c1ccc(-c2cccc(C#N)c2)cc1)N(CC(=O)Nc1cc(Cl)cc(Cl)c1)C(=O)CN1CC[C@H](O)C1 (stereo partly drawn) [Example 42]
9,7.55,C[C@@H](c1ccc(-c2cccc(C#N)c2)cc1)N(CC(=O)Nc1cc(Cl)cc(Cl)c1)C(=O)CCNC1CCC1 [Example 48]
10,7.51,C[C@H](c1ccc(-c2cccc(C#N)c2)cc1)N(CC(=O)Nc1cc(Cl)cc(Cl)c1)C(=O)CN1CC[C@@H](O)C1 [Example 49]
11,7.35,C[C@@H](c1ccc(-c2cccc(C#N)c2)cc1)N(CC(=O)Nc1cc(Cl)cc(Cl)c1)C(=O)CCN(C)C [Example 51]
12,7.66,CCCNCCC(=O)N(CC(=O)Nc1cc(Cl)cc(Cl)c1)[C@@H](C)c1ccc(-c2cccc(C#N)c2)cc1 [Example 45]
13,7.47,CC(C)CNCCC(=O)N(CC(=O)Nc1cc(Cl)cc(Cl)c1)[C@@H](C)c1ccc(-c2cccc(C#N)c2)cc1 [Example 50]

# Same assay, conditions: printed unit nM; read-out: MCH Ki
row,Ki [nM],Compound
1,62,N#Cc1cccc(-c2ccc(CC(=O)N(CCCN3CCCC3)CC(=O)Nc3cc(Cl)cc(Cl)c3)cc2)c1 [Example 61]

# Same assay, conditions: text of the example; printed unit nm; read-out: MCH Ki
row,pKi,Compound
1,7.68,N#Cc1cccc(-c2ccc(CN(CC(=O)Nc3cc(Cl)cc(Cl)c3)C(=O)CCN3CCCC3)cc2)c1 [Example 1]
2,7.68,CC(c1ccc(-c2cccc(C#N)c2)cc1)N(CC(=O)Nc1cc(Cl)cc(Cl)c1)C(=O)CN1CCCC1 (stereo not drawn) [Example 40]
